From BindingDB's records for patent US20240132473 (Shanghai Xunhe Pharmaceutical Technology Co., 2024)

Target: T1, Interleukin-1 receptor-associated kinase 4 (Homo sapiens, UniProt Q9NWZ3)
T1 sequence (Q9NWZ3 whole entry): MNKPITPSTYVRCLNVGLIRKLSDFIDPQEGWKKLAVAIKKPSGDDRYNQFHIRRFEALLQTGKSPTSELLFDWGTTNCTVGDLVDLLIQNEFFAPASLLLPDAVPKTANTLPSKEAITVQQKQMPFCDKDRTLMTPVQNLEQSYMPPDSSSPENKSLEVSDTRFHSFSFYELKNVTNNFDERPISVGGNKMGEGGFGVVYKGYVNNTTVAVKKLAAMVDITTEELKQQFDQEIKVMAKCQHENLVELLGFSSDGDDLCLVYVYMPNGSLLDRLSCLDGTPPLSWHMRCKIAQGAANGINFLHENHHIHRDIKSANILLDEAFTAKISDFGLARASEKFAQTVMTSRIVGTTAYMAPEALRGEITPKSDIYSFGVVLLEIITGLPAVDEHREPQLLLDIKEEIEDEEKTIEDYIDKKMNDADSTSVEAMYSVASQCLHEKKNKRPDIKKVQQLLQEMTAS
Experiment: IRAK4 Kinase Inhibitory Activity Assay
Method: The inhibitory activity (IC50) of the compound on IRAK4 kinase under Km ATP was detected by mobility shift assay (MSA). Ten drug concentration gradients were set (initial concentration 1 μM, 3-fold dilution, 2 duplicate wells per concentration). […] After incubation at 28° C. for a period of time, 10 μL of termination buffer was added to terminate the reaction. The conversion rate data was read with Caliper, and then the conversion rate was converted into inhibition rate data. According to the inhibition rate data of each concentration, the IC50 of half inhibitory concentration was calculated by Logit method (Table 3).

IC50 | SMILES
152 nM | CC(C)(O)c1cc2nn(CCS(C)(=N)=O)cc2cc1NC(=O)c1cccc(C(F)(F)F)n1 (configuration not stated) [US20240132473, Compound MY-004-102]
137 nM | COc1cc2nn(CCS(C)(=N)=O)cc2cc1NC(=O)c1cccc(C(F)(F)F)n1 (configuration not stated) [US20240132473, Compound MY-004-103]
